Reference: patent US9018388B2, “Pesticidal compositions and processes related thereto” (Dow AgroSciences LLC, priority 2012, dated 2015)

Columns and labels:
[1] = test system: Beet Armyworm (BAW) (Spodoptera exigua); experiment: Bioassay on beet armyworm (BAW), 128-well diet tray assay; type: in vivo; conditions: Spodoptera exigua; Beet armyworm, 50 μg/cm^2; read-out: % Mortality BAW 50 μg/cm^2
Experimental: (§1) Bioassays on Beet Armyworm (“BAW”) and Corn Earworm (“CEW”)
(§2) Certain molecules disclosed in this document were tested against BAW and CEW using procedures described in the following examples. In the reporting of the results, the “BAW & CEW Rating Table” was used (See Table Section).
Bioassays on BAW (Spodoptera exigua)
Bioassays on BAW were conducted using a 128-well diet tray assay. One to five second instar BAW larvae were placed in each well (3 mL) of the diet tray that had been previously filled with 1 mL of artificial diet to which 50 μg/cm^2 of the test compound (dissolved in 50 μL of 90:10 acetone-water mixture) had been applied (to each of eight wells) and then allowed to dry. Trays were covered with a clear self-adhesive cover and held at 25° C., 14:10 light-dark for five to seven days. Percent mortality was recorded for the larvae in each well; activity in the eight wells was then averaged. The results are indicated in the table entitled “Table 5: Biological Results” (See Table Section).

[2] = test system: Corn Earworm (CEW) (Helicoverpa zea); experiment: Bioassay on corn earworm (CEW), 128-well diet tray assay; type: in vivo; conditions: Helicoverpa zea; Corn earworm, 50 μg/cm^2; read-out: % Mortality CEW 50 μg/cm^2
Experimental: as §1, §2
Bioassays on CEW (Helicoverpa zea)
Bioassays on CEW were conducted using a 128-well diet tray assay. One to five second instar CEW larvae were placed in each well (3 mL) of the diet tray that had been previously filled with 1 mL of artificial diet to which 50 μg/cm^2 of the test compound (dissolved in 50 μL of 90:10 acetone-water mixture) had been applied (to each of eight wells) and then allowed to dry. Trays were covered with a clear self-adhesive cover and held at 25° C., 14:10 light-dark for five to seven days. Percent mortality was recorded for the larvae in each well; activity in the eight wells was then averaged. The results are indicated in the table entitled “Table 5: Biological Results” (See Table Section).

SMILES	pest or weed control at 50 µg/cm2, 50 µg/cm2 [1] [%]	pest or weed control at 50 µg/cm2, 50 µg/cm2 [2] [%]
CCC(C)c1ccccc1N1C(=O)CCS/C1=N\N=C\c1ccc(-c2ncn(-c3ccc(OC(F)(F)F)cc3)n2)cc1 (centres unmarked) [Compound 230C]	50 to 100	50 to 100
O=C1CS/C(=N\N=C\c2ccc(-c3ncn(-c4ccc(OC(F)(F)F)cc4)n3)cc2)N1c1ccccc1OC(F)(F)F [Compound 124C]	50 to 100	50 to 100
CC(C)c1ccccc1N1CS/C1=N\N=C\c1ccc(-c2ncn(-c3ccc(OC(F)(F)C(F)(F)F)cc3)n2)cc1 [Compound 247C]	50 to 100	50 to 100
CS/C(=N\c1ccc(N(C)C)cc1)N/N=C/c1ccc(-c2ncn(-c3ccc(OC(F)(F)F)cc3)n2)cc1 [Compound 1C, N-(4-dimethylaminophenyl)-S-methyl-2-{4-[1-(4-trifluoromethoxyphenyl)-1H-[1,2,4]-triazol-3-yl]-benzylidene}-hydrazine-carbothioamide]	50 to 100	50 to 100
CC(C)c1ccccc1N1CCCCS/C1=N\N=C\c1ccc(-c2ncn(-c3ccc(OC(F)(F)F)cc3)n2)cc1 [Compound 212C]	50 to 100	50 to 100
CCS/C(=N\c1c(Cl)cccc1Cl)N/N=C/c1ccc(-c2ncn(-c3ccc(OC(F)(F)F)cc3)n2)cc1 [Compound 2C]	50 to 100	50 to 100
Cc1cc(C)c(N2CCCS/C2=N\N=C\c2ccc(-c3ncn(-c4ccc(OC(F)(F)F)cc4)n3)cc2)c(C)c1 [Compound 184C]	50 to 100	50 to 100
Cc1cccc(Cl)c1N1CCCS/C1=N\N=C\c1ccc(-c2ncn(-c3ccc(OC(F)(F)F)cc3)n2)cc1 [Compound 196C]	50 to 100	50 to 100
Cc1cs/c(=N\N=C\c2ccc(-c3ncn(-c4ccc(OC(F)(F)F)cc4)n3)cc2)n1-c1ccccc1OC(F)(F)F [Compound 170C]	50 to 100	50 to 100
C/C(=N\N=C1/SCC(=O)N1c1ccccc1C(C)C)c1ccc(-c2ncn(-c3ccc(OC(F)(F)F)cc3)n2)cc1 [Compound 122C]	50 to 100	50 to 100
Cc1cccc(C)c1N1C(=O)CS/C1=N\N=C\c1ccc(-c2cnn(-c3ccc(OC(F)(F)F)cc3)c2)cc1 [Compound 104C]	50 to 100	50 to 100
CC(C)Cc1ccccc1N1C(=O)CS/C1=N\N=C\c1ccc(-c2ncn(-c3ccc(OC(F)(F)F)cc3)n2)cc1 [Compound 119C]	50 to 100	50 to 100
COc1ccc(/N=C(/N/N=C/c2ccc(-c3ncn(-c4ccc(OC(F)(F)C(F)(F)F)cc4)n3)cc2)SCC(=O)O)c(C)c1 [Compound 50C]	50 to 100	50 to 100
O=C1CS/C(=N\N=C\c2ccc(-c3ncn(-c4ccc(OC(F)(F)F)cc4)n3)cc2)N1c1c(Cl)cccc1Cl [Compound 70C]	50 to 100	50 to 100
Cc1cccc(C)c1N1C(=O)CCS/C1=N\N=C\c1ccc(-c2ncn(-c3ccc(OC(F)(F)F)cc3)n2)cc1 [Compound 223C]	50 to 100	50 to 100
Cc1cccc(C)c1/N=C(/N/N=C/c1ccc(-c2ncn(-c3ccc(OC(F)(F)F)cc3)n2)cc1)SCc1ccccc1F [Compound 11C]	50 to 100	50 to 100
CC(C)c1ccc(F)cc1N1CS/C1=N\N=C\c1ccc(-c2ncn(-c3ccc(OC(F)(F)F)cc3)n2)cc1 [Compound 251C]	50 to 100	50 to 100
CC1CS/C(=N\N=C\c2ccc(-c3ncn(-c4ccc(OC(F)(F)F)cc4)n3)cc2)N1c1ccccc1C(C)(C)C (centres unmarked) [Compound 165C]	50 to 100	50 to 100
COc1cc(C)c(/N=C(/N/N=C/c2ccc(-c3ncn(-c4ccc(OC(F)(F)F)cc4)n3)cc2)SCC(=O)NCCCNC(=O)OC(C)(C)C)c(C)c1 [Compound 60C]	50 to 100	50 to 100
Cc1cccc(C(C)C)c1N1C(=O)CS/C1=N\N=C\c1ccc(-c2ncn(-c3ccc(OC(F)(F)F)cc3)n2)cc1 [Compound 238C]	50 to 100	50 to 100

SMILES	pest or weed control at 50 µg/cm2, 50 µg/cm2 [1] [%]	pest or weed control at 50 µg/cm2, 50 µg/cm2 [2] [%]
CC1CS/C(=N\N=C\c2ccc(-c3ncn(-c4ccc(OC(F)(F)F)cc4)n3)cc2)N(c2ccccc2OC(F)(F)F)C1 (centres unmarked) [Compound 214C]	50 to 100	50 to 100
COc1cc(C)c(/N=C(/N/N=C/c2ccc(-c3ncn(-c4ccc(OC(F)(F)C(F)(F)F)cc4)n3)cc2)SCOC(=O)C(C)C)c(C)c1 [Compound 37C]	50 to 100	50 to 100
CC(C)c1ccc(F)cc1N1CS/C1=N\N=C\c1ccc(-c2ncn(-c3ccc(C(F)(C(F)(F)F)C(F)(F)F)cc3)n2)cc1 [Compound 257C]	50 to 100	50 to 100
Cc1cs/c(=N\N=C\c2ccc(-c3ncn(-c4ccc(OC(F)(F)F)cc4)n3)cc2)n1-c1c(F)cccc1F [Compound 171C]	50 to 100	50 to 100
CC(C)c1ccccc1N1C(=O)CS/C1=N\N=C\c1ccc(-c2ncn(-c3ccc(C(F)(F)F)cc3)n2)cc1 [Compound 120C]	50 to 100	50 to 100
CC1S/C(=N\N=C\c2ccc(-c3ncn(-c4ccc(OC(F)(F)F)cc4)n3)cc2)N(c2c(F)cccc2F)C1=O (centres unmarked) [Compound 131C]	50 to 100	50 to 100
CC(C)c1cccc(F)c1N1CS/C1=N\N=C\c1ccc(-c2ncn(-c3ccc(OC(F)(F)F)cc3)n2)cc1 [Compound 250C]	50 to 100	50 to 100
CC(C)c1ccc(F)cc1N1CS/C1=N\N=C\c1ccc(-c2ncn(-c3ccc(C(F)(F)F)cc3)n2)cc1 [Compound 255C]	50 to 100	50 to 100
CCC(C)c1ccccc1N1/C(=N/N=C/c2ccc(-c3ncn(-c4ccc(OC(F)(F)F)cc4)n3)cc2)SCC1C (centres unmarked) [Compound 163C]	50 to 100	50 to 100
CC1CCS/C(=N\N=C\c2ccc(-c3ncn(-c4ccc(OC(F)(F)F)cc4)n3)cc2)N1c1c(Cl)cccc1C(F)(F)F (centres unmarked) [Compound 217C]	50 to 100	50 to 100
CC1CCS/C(=N\N=C\c2ccc(-c3ncn(-c4ccc(OC(F)(F)F)cc4)n3)cc2)N1c1ccccc1OC(F)F (centres unmarked) [Compound 221C]	50 to 100	50 to 100
COc1cc(C)c(N2CS/C2=N\N=C\c2ccc(-c3ncn(-c4ccc(OC(F)(F)F)cc4)n3)cc2)c(C)c1 [Compound 242C]	50 to 100	50 to 100
Cc1cccc(C)c1N1C(=O)CS/C1=N\N=C\c1ccc(-c2ncn(-c3ccc(OC(F)(F)F)cc3)n2)cc1 [Compound 71C]	50 to 100	50 to 100
CCC(C)c1ccccc1N1C(=O)CS/C1=N\N=C\c1ccc(-c2ncn(-c3ccc(OC(F)(F)F)cc3)n2)cc1 (centres unmarked) [Compound 108C]	50 to 100	50 to 100
Cc1cccc(C)c1N1C(=O)CS/C1=N\N=C\c1ccc(-c2ncn(-c3ccc(OC(F)(F)C(F)(F)F)cc3)n2)cc1 [Compound 100C]	50 to 100	50 to 100
Cc1cccc(C)c1/N=C(/N/N=C/c1ccc(-c2ncn(-c3ccc(OC(F)(F)F)cc3)n2)cc1)SCOC(=O)CNC(=O)OCc1ccccc1 [Compound 23C]	50 to 100	50 to 100
Cc1cccc(C)c1/N=C1\SCC(=O)N1/N=C/c1ccc(-c2ncn(-c3ccc(OC(F)(F)F)cc3)n2)cc1 [Compound 81C]	50 to 100	50 to 100
C/C(=N\N=C1/SCN1c1ccccc1C(C)C)c1ccc(-c2ncn(-c3ccc(OC(F)(F)F)cc3)n2)cc1 [Compound 248C]	50 to 100	50 to 100
CC1S/C(=N\N=C\c2ccc(-c3ncn(-c4ccc(OC(F)(F)F)cc4)n3)cc2)N(c2c(Cl)cccc2Cl)C1=O (centres unmarked) [Compound 129C]	50 to 100	50 to 100
Cc1cccc(C)c1/N=C(/N/N=C/c1ccc(-c2ncn(-c3ccc(OC(F)(F)F)cc3)n2)cc1)SCC(=O)N1CCNCC1 [Compound 67C]	50 to 100	50 to 100
